Laboratory results published in article PMC8429736, “Pharmacological characterization of mutant huntingtin aggregate-directed PET imaging tracer candidates” (Scientific Reports, 2021).

Columns and labels:
aggregated ataxin 1 = assay: ARG, Sca1 mouse models; format: binding
Procedure: (§1) Twenty µm-thick sections were prepared from brains of disease mouse models and WT mice or human post-mortem brain samples by using a cryostat, mounted on superfrost slides and stored at -80 °C for a maximum of 2 weeks. On the day of the experiment, slides were adapted to room temperature for 30 min and then equilibrated by immersion into assay buffer (50 mM Tris–HCl pH 7.4; 120 mM NaCl; 5 mM KCl; 2 mM CaCl2; 1 mM MgCl2) for 20 min at room temperature.
Radioligand solutions were prepared in assay buffer. Optimal radioligand concentrations were determined in advance based on signal-to-background ratio obtained in mouse or human brain tissue. The solutions were mixed in a Coplin jar (Sigma, S5516-6EA) by gently shaking at 175 rpm for 10 min at room temperature. Sections were incubated by immersion into assay buffer containing either only radioligand (total binding or TB) or radioligand plus 10 µM of unlabeled compound (non-specific binding or NSB) for 60 min at room temperature. Afterwards slides were washed three times for 10 min with ice-cold washing buffer (50 mM Tris–HCl (pH 7.4)) at 4 °C and dipped for three seconds in ice-cold distilled water to remove buffer salts. […]

[1] = molecular target: beta amyloid plaques in human AD brain sections (Homo sapiens, UniProt P05067); assay: ARG, human post-mortem AD frontal cortex sections; format: binding; details: 1 nM radioligand
[2] = tested on: mHTT aggregates in HOM zQ175 brain sections; assay: In vitro ARG, single concentration, HOM zQ175 brain sections; format: binding, mouse; details: 0.5 nM
Procedure: as §1
(§2) Radioligand solutions were prepared in assay buffer. Optimal radioligand concentrations were determined in advance based on signal-to-background ratio obtained in mouse or human brain tissue. The solutions were mixed in a Coplin jar (Sigma, S5516-6EA) by gently shaking at 175 rpm for 10 min at room temperature. Sections were incubated by immersion into assay buffer containing either only radioligand (total binding or TB) or radioligand plus 10 µM of unlabeled compound (non-specific binding or NSB) for 60 min at room temperature. Afterwards slides were washed three times for 10 min with ice-cold washing buffer (50 mM Tris–HCl (pH 7.4)) at 4 °C and dipped for three seconds in ice-cold distilled water to remove buffer salts. The slides were dried for 3 h at 30 °C and exposed for 96 h to a Tritium Phosphor Screen (GE Healthcare, Fuji BAS-TR 2025 E) Stored radiation energy on the screen was scanned using a Phosphorimager (GE Healthcare, Typhoon FLA 7000). Densitometric data analysis of radioligand binding was performed using the MCID Analysis 7.1 software (Interfocus Imaging Ltd.). Radioisotope concentration standards (American Radiolabeled Chemicals, ART 0123C and ART 0123B) were exposed with each specimen to enable conversion of density values into tissue-equivalent ligand concentrations (e.g., fmol/mg tissue). A standard curve was created to relate the system´s internal relative optical density measurement (ROD; an inverse logarithmic function of gray level values) to the set of standard values (e.g., isotope concentration). The standard´s isotope concentration (e.g., nCi/mg) is therefore converted into tissue-equivalent ligand concentrations (e.g., fmol/mg tissue) by referring to the radioligand´s specific activity (e.g., Ci/mmol) and including decay-correction. After phosphor screen exposure the human brain sections were stained for 4 min with 0.1% toluidine blue dye solution (Sigma-Aldrich) and rinsed twice in distilled water. To differentiate gray and white matter, the slides were decolorized with 70% ethanol (Merck) for 2–5 min followed by rinse in distilled water. Gray matter appears as gray color and white matter as bluish.

[3] = In vitro ARG, single concentration, WT mouse brain sections; format: binding; details: 0.5 nM
Procedure: as §1, §2

[4] = molecular target: beta amyloid plaques (6E10 antibody) (Homo sapiens, UniProt P05067); assay: HR ARG co-registration with 6E10 antibody, human AD brain sections; format: binding; details: 10 nM CHDI-180, 10 nM CHDI-626, 0.1 nM PiB, 1 nM T808
[5] = tested on: beta amyloid/tau aggregates in post-mortem AD patient brain homogenates; assay: ADbh RBA competition format; format: binding, human; details: radioligand 4; compound 1 µM
Procedure: For RBA in vitro binding assays, brain tissue was sliced (50 µm), weighed and homogenized in PBS (Gibco, 14190-94), 0.1% BSA with a glass pestle (10 strokes) at a concentration of 12–15 mg wet tissue per mL buffer. The crude homogenate concentration was then adjusted to 10 mg/mL (wet tissue) and stored as single-use aliquots at -80 °C.
RBA experiments using Alzheimer’s disease brain homogenates (ADbh RBA) followed the same assay principle as the RBA with recombinant HTT protein, using 0.68 mg/mL homogenate (100 µg per well with 150 µL assay volume) in assay buffer PBS, 0.01% Pluronic F127 (Sigma. P2443) and 1% DMSO after compound addition. […] Incubation at room temperature was conducted for 20 min after compound addition and for 5 h after radioligand addition. For the competition format, raw cpm were normalized towards assay controls as before, to obtain inhibition between 0 and 100%. For saturation binding, raw cpm were converted into nM as before, using a calibration line of total added radioligand, and normalized to mg of added homogenate to finally obtain pmol/mg.

beta amyloid plaques in human AD brain sections, sequence (P05067 672-713 limits assumed): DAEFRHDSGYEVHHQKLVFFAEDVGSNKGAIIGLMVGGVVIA
beta amyloid plaques (6E10 antibody), sequence (P05067 672-713 limits assumed): as above

In the case of `COc1ccc(COc2ccc3oc(-c4ccc(=O)n(C)n4)nc3c2)nc1` [CHDI-180], the “binding to aggregated ataxin 1” value (aggregated ataxin 1; 1 nM radioligand, PcP2-82Q and SCA154Q/2Q mice) is reported as “bound to aggregated ataxin 1”, the “ARG signals compared to the R6/2 HD model” value (aggregated ataxin 1; brain sections of 2 Sca mouse models) is reported as “much lower” and the “binding in AD post-mortem brain tissues” value [1] is reported as 5.6 ± 0.7 fmol/mg. For the same compound, the “binding in AD post-mortem brain tissues” value ([1]; gray matter) was 5.6 ± 0.7 fmol/mg tissue, the NSB ([2]; 3 month HOM Q175, CTX) was 1.3 ± 2.2 fmol/mg and the SB ([2]; 3 month HOM Q175, CTX) was 4.3 ± 2.3 fmol/mg. For the same compound, the TB ([2]; 3 month HOM Q175, CTX) was 5.6 ± 0.3 fmol/mg, the NSB ([2]; 3 month HOM Q175, HPC) was 0.3 ± 0.3 fmol/mg and the SB ([2]; 3 month HOM Q175, HPC) was 4.8 ± 0.4 fmol/mg. For the same compound, the TB ([2]; 3 month HOM Q175, HPC) was 5.1 ± 0.3 fmol/mg, the NSB ([2]; 3 month HOM Q175, STR) was 0.4 ± 0.4 fmol/mg and the SB ([2]; 3 month HOM Q175, STR) was 3.5 ± 0.3 fmol/mg. For the same compound, the TB ([2]; 3 month HOM Q175, STR) was 3.9 ± 0.5 fmol/mg, the NSB ([2]; 6 month HOM Q175, CTX) was 0.2 ± 0.4 fmol/mg and the SB ([2]; 6 month HOM Q175, CTX) was 24.4 ± 1.4 fmol/mg. The TB ([2]; 6 month HOM Q175, CTX) was 24.6 ± 1.0 fmol/mg, the NSB ([2]; 6 month HOM Q175, HPC) was 0.1 ± 0.0 fmol/mg and the SB ([2]; 6 month HOM Q175, HPC) was 25.0 ± 1.6 fmol/mg. For the same compound, the TB ([2]; 6 month HOM Q175, HPC) was 25.1 ± 1.6 fmol/mg, the NSB ([2]; 6 month HOM Q175, STR) was 0.3 ± 0.2 fmol/mg and the SB ([2]; 6 month HOM Q175, STR) was 15.8 ± 2.7 fmol/mg. The TB ([2]; 6 month HOM Q175, STR) was 16.1 ± 2.9 fmol/mg, the NSB ([2]; 9 month HOM Q175, CTX) was 0.9 ± 0.8 fmol/mg and the SB ([2]; 9 month HOM Q175, CTX) was 48.8 ± 8.3 fmol/mg. For the same compound, the TB ([2]; 9 month HOM Q175, CTX) was 49.7 ± 7.4 fmol/mg, the NSB ([2]; 9 month HOM Q175, HPC) was 0.2 ± 0.2 fmol/mg and the SB ([2]; 9 month HOM Q175, HPC) was 41.3 ± 2.2 fmol/mg. The TB ([2]; 9 month HOM Q175, HPC) was 41.5 ± 2.4 fmol/mg, the NSB ([2]; 9 month HOM Q175, STR) was 0.4 ± 0.4 fmol/mg and the SB ([2]; 9 month HOM Q175, STR) was 28.4 ± 2.4 fmol/mg. The TB ([2]; 9 month HOM Q175, STR) was 28.8 ± 2.7 fmol/mg, the NSB ([2]; 12 month HOM Q175, CTX) was 0.8 ± 0.7 fmol/mg and the SB ([2]; 12 month HOM Q175, CTX) was 70.2 ± 10.5 fmol/mg. For the same compound, the TB ([2]; 12 month HOM Q175, CTX) was 70.9 ± 11.0 fmol/mg, the NSB ([2]; 12 month HOM Q175, HPC, n=2) was 0.4 ± 0.7 fmol/mg and the NSB ([2]; 12 month HOM Q175, STR) was 0.4 ± 0.3 fmol/mg. For the same compound, the SB ([2]; 12 month HOM Q175, STR) was 41.3 ± 2.8 fmol/mg, the TB ([2]; 12 month HOM Q175, STR) was 41.6 ± 3.1 fmol/mg and the NSB ([3]; 3 month WT, CTX) was 0.6 ± 0.5 fmol/mg. The SB ([3]; 3 month WT, CTX) was 1.3 ± 1.0 fmol/mg, the TB ([3]; 3 month WT, CTX) was 1.9 ± 0.5 fmol/mg and the NSB ([3]; 3 month WT, HPC) was 0.5 ± 0.6 fmol/mg. It also gave an SB ([3]; 3 month WT, HPC) of 1.6 ± 0.6 fmol/mg, a TB ([3]; 3 month WT, HPC) of 2.0 ± 0.4 fmol/mg and an NSB ([3]; 3 month WT, STR) of 0.7 ± 0.6 fmol/mg. The SB ([3]; 3 month WT, STR) was 1.1 ± 0.4 fmol/mg, the TB ([3]; 3 month WT, STR) was 1.8 ± 0.3 fmol/mg and the NSB ([3]; 6 month WT, CTX) was 0.5 ± 0.6 fmol/mg. It also gave an SB ([3]; 6 month WT, CTX) of 1.2 ± 0.5 fmol/mg, a TB ([3]; 6 month WT, CTX) of 1.8 ± 0.1 fmol/mg and an NSB ([3]; 6 month WT, HPC) of 0.6 ± 0.8 fmol/mg. For the same compound, the SB ([3]; 6 month WT, HPC) was 1.5 ± 0.1 fmol/mg, the TB ([3]; 6 month WT, HPC) was 2.2 ± 0.7 fmol/mg and the NSB ([3]; 6 month WT, STR) was 0.4 ± 0.5 fmol/mg. The SB ([3]; 6 month WT, STR) was 1.6 ± 0.1 fmol/mg, the TB ([3]; 6 month WT, STR) was 2.0 ± 0.6 fmol/mg and the NSB ([3]; 9 month WT, CTX) was 0.1 ± 0.2 fmol/mg. The SB ([3]; 9 month WT, CTX) was 1.2 ± 0.2 fmol/mg, the TB ([3]; 9 month WT, CTX) was 1.3 ± 0.4 fmol/mg and the NSB ([3]; 9 month WT, HPC) was 0.6 ± 0.8 fmol/mg. It also gave an SB ([3]; 9 month WT, HPC) of 1.1 ± 0.5 fmol/mg, a TB ([3]; 9 month WT, HPC) of 1.8 ± 0.5 fmol/mg and an NSB ([3]; 9 month WT, STR) of 0.0 ± 0.0 fmol/mg. It also gave an SB ([3]; 9 month WT, STR) of 1.6 ± 0.1 fmol/mg, a TB ([3]; 9 month WT, STR) of 1.6 ± 0.1 fmol/mg and an NSB ([3]; 12 month WT, CTX) of 0.1 ± 0.1 fmol/mg. It also gave an SB ([3]; 12 month WT, CTX) of 1.2 ± 0.2 fmol/mg, a TB ([3]; 12 month WT, CTX) of 1.3 ± 0.3 fmol/mg and an NSB ([3]; 12 month WT, HPC) of 0.0 ± 0.1 fmol/mg. The SB ([3]; 12 month WT, HPC) was 1.6 ± 0.5 fmol/mg, the TB ([3]; 12 month WT, HPC) was 1.6 ± 0.4 fmol/mg and the NSB ([3]; 12 month WT, STR) was 0.2 ± 0.2 fmol/mg. For the same compound, the SB ([3]; 12 month WT, STR) was 1.2 ± 0.2 fmol/mg, the TB ([3]; 12 month WT, STR) was 1.3 ± 0.0 fmol/mg and the “co-registration with 6E10-positive beta amyloid plaques” value [4] was “low density binding”. The “inhibition at 1 µM” value [5] was ~ 50%.
